In the supplement of paper PMC10307832:

Columns and labels:
Test in all cases: relative viability (nuclei count vs DMSO), 5 days (fraction); higher = more cells survive
[1] = compound: C[C@@H](Oc1cc(-c2cnn(C3CCNCC3)c2)cnc1N)c1c(Cl)ccc(F)c1Cl [Crizotinib] + Cc1nc(Nc2ncc(C(=O)Nc3c(C)cccc3Cl)s2)cc(N2CCN(CCO)CC2)n1 [Dasatinib] (partner 0.075 µM)
Method in brief: (§1)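 For relative viability, nuclei counts in treated wells were divided by those in vehicle wells. Lung cancer cell lines had been pin-tool dosed in 1536-well plates the day after seeding and cultured for 5 days, then fixed and stained in one step (final 0.05% Triton X-100, 1% formaldehyde, 1 ug/ml Hoechst) and imaged at 4×. Doses were one drug alone or a fixed anchor-drug dose plus five library-drug doses (not always all listed) in √10 steps, and values are duplicate-plate medians.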

[2] = compound: O=C(c1cc(Cc2n[nH]c(=O)c3ccccc23)ccc1F)N1CCN(C(=O)C2CC2)CC1 [Olaparib] + C[C@@H](Oc1cc(-c2cnn(C3CCNCC3)c2)cnc1N)c1c(Cl)ccc(F)c1Cl [Crizotinib] (partner 1 µM)
Method in brief: as §1

[3] = compound: O=C(c1cc(Cc2n[nH]c(=O)c3ccccc23)ccc1F)N1CCN(C(=O)C2CC2)CC1 [Olaparib] + NC(=O)Nc1cc(-c2cccc(F)c2)sc1C(=O)N[C@H]1CCCNC1 [AZD7762] (partner 0.2 µM)
Method in brief: as §1

[4] = compound: O=C(c1cc(Cc2n[nH]c(=O)c3ccccc23)ccc1F)N1CCN(C(=O)C2CC2)CC1 [Olaparib] + O=C(CCCCCCC(=O)Nc1ccccc1)NO [Vorinostat] (partner 1 µM)
Method in brief: as §1

Cell Line	relative viability ([1]; first compound 0.01 µM)	relative viability ([1]; first compound 0.03162 µM)	relative viability ([1]; first compound 0.1 µM)	relative viability ([1]; first compound 1 µM)	relative viability ([2]; first compound 0.08 µM)	relative viability ([2]; first compound 0.253 µM)	relative viability ([2]; first compound 2.53 µM)	relative viability ([2]; first compound 8 µM)	relative viability ([3]; first compound 0.08 µM)	relative viability ([3]; first compound 0.253 µM)	relative viability ([3]; first compound 2.53 µM)	relative viability ([3]; first compound 8 µM)	relative viability ([4]; first compound 0.08 µM)	relative viability ([4]; first compound 0.253 µM)	relative viability ([4]; first compound 2.53 µM)	relative viability ([4]; first compound 8 µM)	relative viability ([1]; first compound 0.3162 µM)
LK-2	0.369	0.338	0.253	0.285	0.177	0.181	0.192	0.186	0.351	0.394	0.348	0.471	0.391	0.341	0.345	0.268	
LOU-NH91	0.523	0.547	0.623	0.486	0.785	0.71	0.721	0.744	0.838	0.739	0.789	0.761	1.17	0.904	0.939	0.983	0.554
LU99A	0.434	0.565	0.501	0.566	0.522	0.495	0.427	0.42	0.337	0.213	0.204	0.125	0.463	0.397	0.353	0.23	0.55
LXF-289	0.306	0.209	0.223	0.247	0.907	0.799	0.889	0.875	1.27	1.02	1.28	1.17	0.81	0.731	0.807	0.722	0.184
NCI-H23	0.763	0.83	0.645	0.742	0.673	0.444	0.492	0.274	0.3	0.269	0.269	0.147	0.957	0.542	0.434	0.256	
NCI-H322M	0.23	0.251	0.232	0.263	1.03	0.803	0.994	0.902	0.724	0.608	0.521	0.496	1.01	0.854	0.942	0.831	0.262
NCI-H358	0.137	0.163	0.147	0.156	0.606	0.541	0.651	0.518	0.574	0.522	0.495	0.382	0.697	0.613	0.634	0.551	0.151
NCI-H441	0.531	0.524	0.497	0.51	0.677	0.634	0.733	0.719	1.16	1.03	1	0.446	0.808	0.696	0.673	0.607	
NCI-H460	0.358	0.521	0.478	0.479	0.875	0.744	0.502	0.17	0.595	0.513	0.357	0.126	0.778	0.58	0.378	0.0953	0.424
NCI-H596	0.634	0.594	0.677	0.722	0.736	0.866	1.02	0.833	1.19	0.981	1.04	0.703	0.696	0.529	0.551	0.397	0.658
NCI-H647	0.148	0.172	0.131	0.17	1.23	0.914	0.923	0.675	0.508	0.379	0.343	0.156	0.585	0.504	0.6	0.271	0.191
NCI-H650	0.472	0.434	0.512	0.406	0.899	0.713	0.623	0.615	1.05	0.956	0.826	0.927	0.431	0.37	0.377	0.238	0.388
NCI-H727		0.398	0.348	0.341	0.934	0.737	0.671	0.48	0.509	0.706	0.626	0.676	1.19	1.08	0.983	0.981	
NCI-H838	0.208	0.303	0.313	0.261	0.882	0.774	0.779	0.742	1.09	0.949	0.912	0.801	0.747	0.646	0.709	0.65	0.248
NCI-H1355	0.736	0.823	0.733	0.65	1.17	1.01	1.02	0.923	0.74	0.749	0.714	0.696	0.683	0.645	0.638	0.641	0.598
NCI-H1437	0.376	0.435	0.403	0.396	1.07	0.814	0.903	0.618	1.19	1.11	1.15	0.997	0.945	0.746	0.695	0.639	0.301
NCI-H1651	0.374	0.389	0.456	0.314	0.882	0.782	0.669	0.439	0.486	0.424	0.363	0.184	0.493	0.515	0.493	0.365	0.403
NCI-H1666	0.808	0.797	0.741	0.863	1.09	0.777	0.685	0.602	0.892	0.725	0.781	0.835	1.06	0.957	0.981	0.836	0.77
NCI-H1734	0.49	0.455	0.397	0.555	0.691	0.681	0.647	0.553	0.611	0.49	0.441	0.333	0.868	0.74	0.715	0.572	
